Source: patent US20240300975A1, “DIMETHYL-SUBSTITUTED THIAZOLOLACTAM COMPOUND AND USE THEREOF” (D3 Bio (Wuxi) Co., Ltd., priority 2021, published 2024)

How the values were obtained:
hERG potassium channel = hERG potassium channel (Homo sapiens (Human), UniProt Q12809); assay: hERG assay (automated patch-clamp, CHO-hERG cells); assay type: cell-based; conditions: Qpatch, highest assayed concentration 40 μM
Experimental: A fully automated patch-clamp method was used to assay the effect of the compound on hERG potassium channel (human Ether-a-go-go Related Gene potassium channel) current.
CHO-hERG cells were cultured in a 175 cm^2 culture flask. When cells grew to a density of 60˜80%, the culture medium was removed. Cells were washed once with 7 mL of PBS (Phosphate Buffered Saline), and then 3 mL of Detachin was added for digestion. After the digestion was completed, 7 mL of culture medium was added for neutralization, and then the mixture was centrifuged. The supernatant was aspirated, and then 5 mL of culture medium was added to resuspend the cells and ensure that the cell density was 2˜5×10^6/mL.
Extracellular solution formulation (mM): 140 NaCl, 5 KCl, 1 CaCl2), 1.25 MgCl2, 10 HEPES and 10 Glucose; the formulation was adjusted to pH of 7.4 with NaOH. […]
The single-cell high-impedance sealing and whole-cell pattern formation processes were all automatically performed by a Qpatch instrument. […] This voltage stimulation was applied every 15 seconds, and recorded for 2 minutes. The extracellular solution was then given, and recorded for 5 minutes. […]
Assay data were analyzed by GraphPad Prism 5.0 software. […]
• The inhibitory effect of Cisapride with multiple concentrations on the hERG channel was measured as a positive control.

rat plasma albumin = assay: Plasma protein binding (PPB), rat plasma; assay type: in vitro ADME; conditions: ultracentrifugation, 37° C., 4 h
Experimental: (§1) The binding degree of the assay compound to human/mouse/rat/canine/monkey plasma albumin was studied.
(§2) • 1) Matrix preparation: on the day of the assay, plasma was thawed in cold water and centrifuged at 3220 rpm for 5 min to remove all clots. The pH of the resulting plasma was measured and adjusted to 7.4±0.1 using 1% phosphoric acid or 1N sodium hydroxide as needed. • 2) Dilution procedure for the assay compound: the assay compound was dissolved in dimethyl sulfoxide (DMSO) to prepare stock solutions with concentrations of 10 mM and 2 mM, respectively. A 40 μM working solution was prepared by diluting 2 μL of stock solution (2 mM) with 98 μL of DMSO. A 400 μM working solution of the control compound was prepared by diluting 10 μL of stock solution with 240 μL of DMSO. The working solution of the compound (5 μL) was mixed well with a blank matrix (995 μL) at a ratio of 1:200 to prepare a loading matrix.
(§3) • a) An equal volume of 30 μL of loading matrix (n=2) was transferred to a sample collection plate to prepare a time 0 (TO) sample for residue determination. The sample was immediately matched with the corresponding blank buffer to a final volume of 60 μL, and the volume ratio of plasma to buffer in each well was 1:1. […] The mixture was centrifuged at 4000 rpm for 20 min and 100 μL of supernatant from each sample was analyzed by LC-MS/MS.

canine plasma albumin = assay: Plasma protein binding (PPB), canine plasma; assay type: in vitro ADME; conditions: ultracentrifugation, 37° C., 4 h
Experimental: as §1, §2, §3

Sequence of hERG potassium channel (Q12809 whole entry): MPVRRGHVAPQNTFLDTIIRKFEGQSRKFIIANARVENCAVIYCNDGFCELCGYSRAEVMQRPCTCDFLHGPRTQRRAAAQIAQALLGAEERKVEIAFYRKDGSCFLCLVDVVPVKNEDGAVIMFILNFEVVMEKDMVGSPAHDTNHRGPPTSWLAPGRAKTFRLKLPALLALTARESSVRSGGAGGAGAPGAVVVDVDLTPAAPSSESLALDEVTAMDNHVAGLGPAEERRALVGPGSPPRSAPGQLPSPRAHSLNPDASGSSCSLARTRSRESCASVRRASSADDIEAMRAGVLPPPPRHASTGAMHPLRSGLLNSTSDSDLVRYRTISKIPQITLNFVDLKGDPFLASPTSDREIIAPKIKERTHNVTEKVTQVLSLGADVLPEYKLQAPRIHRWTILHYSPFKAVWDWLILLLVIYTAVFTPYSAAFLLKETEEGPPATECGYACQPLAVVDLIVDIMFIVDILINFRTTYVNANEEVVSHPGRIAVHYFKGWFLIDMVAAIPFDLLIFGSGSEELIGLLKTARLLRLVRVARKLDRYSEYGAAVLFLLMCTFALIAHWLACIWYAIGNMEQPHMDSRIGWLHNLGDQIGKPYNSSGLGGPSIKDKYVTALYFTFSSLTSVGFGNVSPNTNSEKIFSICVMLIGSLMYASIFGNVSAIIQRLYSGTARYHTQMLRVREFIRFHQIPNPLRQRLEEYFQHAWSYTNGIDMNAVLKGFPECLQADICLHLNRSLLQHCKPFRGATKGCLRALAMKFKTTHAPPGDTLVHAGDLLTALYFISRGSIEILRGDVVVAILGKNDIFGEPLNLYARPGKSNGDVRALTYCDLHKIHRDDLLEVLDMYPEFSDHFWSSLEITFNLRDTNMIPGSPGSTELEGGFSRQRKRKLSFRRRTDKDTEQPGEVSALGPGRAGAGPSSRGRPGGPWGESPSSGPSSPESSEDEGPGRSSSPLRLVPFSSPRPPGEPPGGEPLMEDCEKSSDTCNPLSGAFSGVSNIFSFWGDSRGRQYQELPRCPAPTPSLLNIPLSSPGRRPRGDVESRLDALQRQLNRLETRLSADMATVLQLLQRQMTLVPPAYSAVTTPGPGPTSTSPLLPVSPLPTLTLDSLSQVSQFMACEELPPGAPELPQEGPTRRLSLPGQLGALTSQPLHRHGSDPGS

Cc1cccc(CN2C(=O)c3nc(-c4nc(Nc5ccnn5C)ncc4C)sc3C2(C)C)n1 [WX001]
IC50 (hERG potassium channel): > 40 µM | Plasma protein binding rate (unbound %) (rat plasma albumin): 3.8% | Plasma protein binding rate (unbound %) (canine plasma albumin): 4.1%
